Data reported in patent US20100204148A1, “(D-LEU7 ) -HISTRELIN AS A THERAPEUTIC AGENT” (priority 2007, published 2010).

How the values were obtained:
RAW 264.7 cells = test: Phagocytosis assay (Fluorescein-labeled Escherichia coli); type: cell-based, mouse; conditions: 10 micrograms per ml, flow cytometry
Streptococcus pneumoniae = type: cell-based; conditions: 10 micrograms per ml
HUVEC = test: Endothelial tube formation assay; type: cell-based, human; conditions: 10 micrograms per ml, 20 hours
Text: Positive control was vehicle only.

[1] = system: hepatitis B virus (HBV) ayw strain; test: HBV experimental assay system (secreted HBV DNA, TaqMan PCR); conditions: HepG2-2.2.15; peptide 10 micrograms per ml; six days; HBV DNA in supernatant
[2] = system: Primary Human endothelial cells (HUVEC); test: Endothelial cell migration assay; type: cell-based; conditions: 10 micrograms per ml, 22 hours
in vitro [3] = conditions: human
[4] = system: spleen cells of Ovalbumin-immunized Balb/c mice; test: Th1/Th2 cytokine profiling assay; type: cell-based, mouse; conditions: 10 micrograms per ml; Ovalbumin restimulation; 72 hours
in vitro [5] = conditions: human, CEM-SS cells
[6] = system: Human Peripheral Blood Mononuclear Cells (PBMC); test: B cell proliferation assay (SAC plus IL-2, 3H-thymidine); conditions: 10 micrograms per ml
Human A549 cells [7] = test: Apoptosis induction assay (Annexin-5); type: cell-based; conditions: 10 micrograms per ml, 24 hours
Text: Human A549 cells (carcinomic human alveolar basal epithelial cells) were utilized in the experiments employing the Annexin-5 apoptosis assay.

in vitro [8] = conditions: human, MRC-5 cells (human embryonal lung fibroblasts)
Experimental: The following day, peptide were added and tested in duplicates.

Pseudomonas aeruginosa = type: cell-based; conditions: 10 micrograms per ml
HIV-1IIIB = test: HIV-1 antiviral assay (CPE reduction) in CEM-SS cells; type: cell-based; conditions: peptide 10 micrograms per ml; 6 days post-infection; MTS
Human A549 cells [9] = test: Propidium iodide cell cycle assay; type: cell-based; conditions: 10 micrograms per ml, 24 hours, FACS
Text: The cell cycle consists of four distinct phases: […]

[10] = system: macrophages from human PBMC; test: TNF alpha production assay (LPS-stimulated macrophages, ELISA); type: cell-based; conditions: 10 micrograms per ml, lipopolysaccharide 200 ng/ml, overnight
Text: Not stimulated macrophages served as negative background control.

HCMV strain AD169 = test: HCMV plaque reduction assay in MRC-5 cells; type: cell-based; conditions: HCMV in MRC-5 cells; peptide 10 micrograms per ml; 7-10 days
Text: Ganciclovir was used as positive control.

[11] = system: Human Peripheral Blood Mononuclear Cells (PBMC); test: T cell proliferation assay (PHA, 3H-thymidine); conditions: 10 micrograms per ml
Human A549 cells [12] = test: Apoptosis prevention assay (C2 ceramide, Annexin-5); type: cell-based; conditions: 30 min pretreatment with 10 micrograms per ml
MRSA = conditions: 10 micrograms per ml

SMILES: CCNC(=O)[C@@H]1CCCN1C(=O)[C@H](CCCNC(=N)N)NC(=O)[C@@H](CC(C)C)NC(=O)[C@@H](Cc1cn(Cc2ccccc2)cn1)NC(=O)[C@H](Cc1ccc(O)cc1)NC(=O)[C@H](CO)NC(=O)[C@H](Cc1c[nH]c2ccccc12)NC(=O)[C@H](Cc1c[nH]cn1)NC(=O)[C@@H]1CCC(=O)N1 [D-Leu^7-Histrelin, Pyr-His-Trp-Ser-Tyr-D-His(Bzl)-D-Leu-Arg-Pro-NHEt]
- % of control phagocytosis (RAW 264.7 cells): 102.9%
- % inhibition (Streptococcus pneumoniae): 100.0%
- % inhibition of tube formation (HUVEC): 4%
- % inhibition of HBV replication in HEP G2 cells [1]: 61.6%
- % inhibition of migration [2]: 8%
- viability at 144 h, 10 micrograms per ml (in vitro [3]): 91.4%
- IFNγ spleen cells; TH1 response (% of control) [4]: 69.2 % of control
- IL-2 spleen cells (% of control) [4]: 155.8 % of control
- IL-4 spleen cells; TH2 response (% of control) [4]: 235.7 % of control
- IL-5 spleen cells; TH2 response (% of control) [4]: 93.0 % of control
- TNF-a spleen cells; TH1 response (% of control) [4]: 116.4 % of control
- viability at 10 micrograms per ml (in vitro [5]): 100%
- % of SAC/IL2 induced control [6]: 92.6%
- % of induction (Human A549 cells [7]): 4.3%
- viability at 144 h (in vitro [8]): 100%
- % inhibition (Pseudomonas aeruginosa): 0.0%
- % CPE reduction in HIV-1 infected CEM-SS cells (HIV-1IIIB): 0.0%
- Cell cycle analysis G0/G1 (Human A549 cells [9]): 58.9
- Cell cycle analysis G2/M (Human A549 cells [9]): 9.7
- Cell cycle analysis S (Human A549 cells [9]): 31.4
- % of LPS induction [10]: 111.5%
- % plaque reduction (HCMV strain AD169): 2.5%
- % of PHA induced control [11]: 96.2%
- % prevention of ceramide induced apoptosis (Human A549 cells [12]): 0.0%
- % inhibition (MRSA): 0.0%
